Measurements reported in US20260250325A1, “Antiviral Polypeptide Membrane Fusion Inhibitor, and Preparation Method and Application Thereof” (priority 2025, published 2026).
Where a SMILES comes first, the peptide text is derived from it. The star is where a group is joined. Succinyl(4-O-cholesteryl) = CC(C)CCC[C@@H](C)[C@H]1CC[C@H]2[C@@H]3CC=C4C[C@@H](OC(=O)CCC(=O)*)CC[C@]4(C)[C@H]3CC[C@]12C

How the values were obtained:
[1] = tested on: hPIV3 C243 virus strain; type: cell-based, hPIV; conditions: LLC-MK2 cells, hPIV3 C243, plaque reduction; read-out: EC50 against hPIV3 virus
Description: Rhesus monkey kidney cells (LLC-MK2) were sourced from the ATCC, with a catalog number CCL-7.1. The cells were cultured in a DMEM culture solution in which 10% fetal bovine serum, 1% non-essential amino acids, 1% sodium pyruvate, 1% L-glutamine, 100 U/ml penicillin, and 100 μg/ml streptomycin were added.
An HPIV-3 plaque experiment culture medium consisted of a DMEM culture solution added with 2% fetal bovine serum, 1% non-essential amino acids, 1% sodium pyruvate, 1% L-glutamine, 100 U/ml penicillin, and 100 μg/ml streptomycin.
The hPIV Type 3 (hPIV3 C243) was sourced from the ATCC, with a catalog number VR-93.
This study used the plaque reduction experiment to detect the in-vitro activity of the test sample against the hPIV3 C243 virus strain, and Human Anti-HPIV3 Monoclonal Antibody, clone PIA174 was an experimental system control. The test sample and a system experimental antibody were tested at 8 concentrations in duplicated wells.
The LLC-MK2 cells were digested with trypsin and then diluted to a concentration of 400,000 cells per milliliter by using a cell culture solution containing 2% serum. The diluted cells were added to a 96-well cell test board, with 100 μL per well, corresponding to 40,000 cells per well. The cells were cultured overnight in a 37° C. incubator with 5% CO2.
On the next day, the sample diluted at a fold ratio and an equal volume of virus (approximately 200 PFU per well) were well mixed and incubated at 37° C. in 5% CO2 for 1 hour. Then, the culture solution in the 96-well cell test board was discarded, the sample virus mixed solution (100 μL) was added to the 96-well cell culture plate, and incubated at 37° C. in 5% CO2 for 2 hours. After 2 h, the sample virus mixed solution was discarded, 200 μL of an experiment culture medium containing the test sample with a corresponding concentration was added, and the culture solution contained 0.8% CMC. A final concentration of DMSO in the culture solution was 0.5%. A control antibody was directly added to the experiment culture solution containing 0.8% CMC. A cell control (cells, without compound treatment or viral infection) and a viral control (cell infection virus, without compound treatment) were set. The cells were cultured for 1 day in the 37° C. incubator with 5% CO2.
The cells were fixed with 4% paraformaldehyde, and then permeabilization was performed with 0.5% Triton X-100. After the plate was washed with DPBS, a hPIV specific antibody (1:2000 dilution) was added and incubated at 37° C. for 1.5 h. Then, a secondary antibody (1:500 dilution) was added and incubated at 37° C. for 1 hour. The secondary antibody was discarded, a TrueBlue solution was added, dyeing was performed for approximately 10 minutes; and the plate was washed with running water and then air-dried, and the number of spots in each well was counted by using a microplate imaging counter.
Raw data was used for calculating the antiviral activity of the samples, and a calculation formula was shown as follows.
% inhibition rate=100−(sample value-cell control average value)/(virus control average value-cell control average value)×100
Non-linear fitting analysis was performed on the inhibition rate of the sample by using GraphPad Prism (version 10), so as to calculate an EC50 value for the sample. A fitting formula was log (inhibitor) vs. response-Variable slope (four parameters).

[2] = Cytotoxicity test in HEp-2 cells (CCK8 cell viability); type: cell-based; conditions: human; HEp-2 cells, CCK8, 1 day; read-out: CC50
Method in brief: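 Compound dilutions (final DMSO 0.5%) were applied for 1 day to HEp-2 cells plated at 30,000 per well the day before. CCK8 signal gave survival relative to cell and medium controls, and a four-parameter log(inhibitor)-response fit yielded CC50.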

| Molecule | EC50 [1] [µM] | CC50 at 1 day [2] [µM] |
| --- | --- | --- |
| CC[C@H](C)[C@H](NC(=O)[C@H](CCCCN)NC(=O)[C@H](CCCCN)NC(=O)[C@H](CC(C)C)NC(=O)[C@H](CO)NC(=O)[C@H](CCC(=O)O)NC(=O)[C@H](CCC(=O)O)NC(=O)[C@@H](NC(=O)[C@H](CCCCN)NC(=O)[C@H](CCCCN)NC(=O)[C@H](CC(N)=O)NC(=O)[C@@H](NC(=O)[C@H](CCC(=O)O)NC(=O)[C@H](CCC(=O)O)NC(=O)[C@@H](NC(=O)[C@H](CCCCN)NC(=O)[C@H](CCCCN)NC(=O)[C@H](CC(=O)O)NC(=O)[C@H](Cc1ccccc1)NC(=O)[C@H](CCC(=O)O)NC(=O)[C@H](CC(=O)O)NC(=O)[C@H](CO)NC(C)=O)[C@@H](C)CC)C(C)C)[C@@H](C)CC)C(=O)N[C@@H](CCC(=O)O)C(=O)N[C@@H](CCC(=O)O)C(=O)N[C@@H](CO)C(=O)N[C@@H](CC(=O)O)C(=O)N[C@@H](CCCCN)C(=O)N[C@@H](CCCCN)C(=O)N[C@@H](CC(C)C)C(=O)NCC(=O)N[C@@H](CO)C(=O)NCC(=O)N[C@@H](CO)C(=O)NCC(=O)N[C@@H](CCCCNC(=O)CCC(=O)O[C@H]1CC[C@@]2(C)C(=CC[C@H]3[C@@H]4CC[C@H]([C@H](C)CCCC(C)C)[C@@]4(C)CC[C@@H]32)C1)C(N)=O [Compound 20] (Ac-SDEFDKKIEEVNKKIEESLKKIEESDKKLGSGSGK(Succinyl(4-O-cholesteryl))-NH2) | 0.0595 | 29 |
| Ac-LVKKIDEFDASISQVNEKINQSLEEIRKSDELLHNVGSGSGK(Succinyl(4-O-cholesteryl))-NH2 [Compound 29] | 0.0263 | 15 |
| CC[C@H](C)[C@H](NC(=O)[C@H](CCCCN)NC(=O)[C@H](CCCCN)NC(=O)[C@H](CC(C)C)NC(=O)[C@H](CO)NC(=O)[C@H](CCC(=O)O)NC(=O)[C@H](CCC(=O)O)NC(=O)[C@@H](NC(=O)[C@H](CCCCN)NC(=O)[C@H](CCCCN)NC(=O)[C@H](CC(N)=O)NC(=O)[C@@H](NC(=O)[C@H](CCC(=O)O)NC(=O)[C@H](CCC(=O)O)NC(=O)[C@@H](NC(=O)[C@H](CCCCN)NC(=O)[C@H](CCCCN)NC(=O)[C@H](CCCCN)NC(=O)[C@H](CC(=O)O)NC(=O)[C@H](Cc1ccccc1)NC(=O)[C@H](CCC(=O)O)NC(=O)[C@H](CC(=O)O)NC(C)=O)[C@@H](C)CC)C(C)C)[C@@H](C)CC)C(=O)N[C@@H](CCC(=O)O)C(=O)N[C@@H](CCC(=O)O)C(=O)N[C@@H](CO)C(=O)N[C@@H](CC(=O)O)C(=O)N[C@@H](CCCCN)C(=O)N[C@@H](CCCCN)C(=O)N[C@@H](CC(C)C)C(=O)N[C@@H](CCC(=O)O)C(=O)N[C@@H](CCC(=O)O)C(=O)N[C@H](C(=O)NCC(=O)N[C@@H](CO)C(=O)NCC(=O)N[C@@H](CO)C(=O)NCC(=O)N[C@@H](CCCCNC(=O)CCC(=O)O[C@H]1CC[C@@]2(C)C(=CC[C@H]3[C@@H]4CC[C@H]([C@H](C)CCCC(C)C)[C@@]4(C)CC[C@@H]32)C1)C(N)=O)C(C)C [Compound 15] (Ac-DEFDKKKIEEVNKKIEESLKKIEESDKKLEEVGSGSGK(Succinyl(4-O-cholesteryl))-NH2) | 0.0207 | 8.9 |
| CC[C@H](C)[C@H](NC(=O)[C@H](CCCCN)NC(=O)[C@H](CCC(=O)O)NC(=O)[C@H](CC(C)C)NC(=O)[C@H](CO)NC(=O)[C@H](CCC(N)=O)NC(=O)[C@H](CC(N)=O)NC(=O)[C@@H](NC(=O)[C@H](CCCCN)NC(=O)[C@H](CCC(=O)O)NC(=O)[C@H](CC(N)=O)NC(=O)[C@@H](NC(=O)[C@H](CCC(N)=O)NC(=O)[C@H](CO)NC(=O)[C@H](C)NC(=O)[C@H](CC(=O)O)NC(=O)[C@H](Cc1ccccc1)NC(=O)[C@@H](NC(=O)[C@H](CC(C)C)NC(=O)[C@H](CCC(=O)O)NC(=O)[C@H](CC(=O)O)NC(=O)[C@H](Cc1ccc(O)cc1)NC(C)=O)C(C)C)C(C)C)[C@@H](C)CC)C(=O)N[C@@H](CCCNC(=N)N)C(=O)N[C@@H](CCCCN)C(=O)N[C@@H](CO)C(=O)N[C@@H](CC(=O)O)C(=O)N[C@@H](CCC(=O)O)C(=O)N[C@@H](CC(C)C)C(=O)N[C@@H](CC(C)C)C(=O)N[C@@H](Cc1c[nH]cn1)C(=O)N[C@@H](CC(N)=O)C(=O)N[C@H](C(=O)N[C@@H](CCC(=O)O)C(=O)N[C@@H](C)C(=O)N[C@@H](C)C(=O)N[C@@H](C)C(=O)N[C@@H](CCCCN)C(=O)N[C@@H](CCCCNC(=O)CCC(=O)O[C@H]1CC[C@@]2(C)C(=CC[C@H]3[C@@H]4CC[C@H]([C@H](C)CCCC(C)C)[C@@]4(C)CC[C@@H]32)C1)C(N)=O)C(C)C [Compound 30] (Ac-YDELVFDASQVNEKINQSLEKIRKSDELLHNVEAAAKK(Succinyl(4-O-cholesteryl))-NH2) | 0.0482 | 6.2 |
| CC[C@H](C)[C@H](NC(=O)[C@H](CO)NC(=O)[C@H](C)NC(=O)[C@H](CC(=O)O)NC(=O)[C@H](Cc1ccccc1)NC(C)=O)C(=O)N[C@@H](CCC(=O)O)C(=O)N[C@@H](CCC(=O)O)C(=O)N[C@H](C(=O)N[C@@H](CC(N)=O)C(=O)N[C@@H](CCCNC(=N)N)C(=O)N[C@@H](CCCNC(=N)N)C(=O)N[C@H](C(=O)N[C@@H](CCC(=O)O)C(=O)N[C@@H](CCC(=O)O)C(=O)N[C@@H](CO)C(=O)N[C@@H](CC(C)C)C(=O)N[C@@H](CCCNC(=N)N)C(=O)N[C@@H](CCCNC(=N)N)C(=O)N[C@H](C(=O)N[C@@H](CCC(=O)O)C(=O)N[C@@H](CCC(=O)O)C(=O)N[C@@H](CO)C(=O)N[C@@H](CC(=O)O)C(=O)N[C@@H](CCCNC(=N)N)C(=O)N[C@@H](CCCNC(=N)N)C(=O)N[C@@H](CC(C)C)C(=O)N[C@@H](CCC(=O)O)C(=O)N[C@@H](CCC(=O)O)C(=O)N[C@H](C(=O)N[C@@H](CC(N)=O)C(=O)N[C@@H](C)C(=O)N[C@@H](CCC(=O)O)C(=O)N[C@@H](C)C(=O)N[C@@H](C)C(=O)N[C@@H](C)C(=O)N[C@@H](CCCCN)C(=O)N[C@@H](CCCCNC(=O)CCC(=O)O[C@H]1CC[C@@]2(C)C(=CC[C@H]3[C@@H]4CC[C@H]([C@H](C)CCCC(C)C)[C@@]4(C)CC[C@@H]32)C1)C(N)=O)C(C)C)[C@@H](C)CC)[C@@H](C)CC)C(C)C [Compound 42] (Ac-FDASIEEVNRRIEESLRRIEESDRRLEEVNAEAAAKK(Succinyl(4-O-cholesteryl))-NH2) | 0.0189 | 3.71 |
| Ac-WDEFDASISQVNEKINQSLEEIRKSDELLHNVNAGLGSGSGK(Succinyl(4-O-cholesteryl))-NH2 [Compound 27] | 0.0272 | 18.4 |
| CC[C@H](C)[C@H](NC(=O)[C@H](CCCCN)NC(=O)[C@H](CCCCN)NC(=O)[C@H](CC(C)C)NC(=O)[C@H](CO)NC(=O)[C@H](CCC(=O)O)NC(=O)[C@H](CCC(=O)O)NC(=O)[C@@H](NC(=O)[C@H](CCCCN)NC(=O)[C@H](CCCCN)NC(=O)[C@H](CC(N)=O)NC(=O)[C@@H](NC(=O)[C@H](CCC(=O)O)NC(=O)[C@H](CCC(=O)O)NC(=O)[C@@H](NC(=O)[C@H](CCCCN)NC(=O)[C@H](CCCCN)NC(=O)[C@H](CC(=O)O)NC(=O)[C@H](Cc1ccccc1)NC(=O)[C@H](CCC(=O)O)NC(=O)[C@H](CC(=O)O)NC(=O)[C@H](Cc1c[nH]c2ccccc12)NC(C)=O)[C@@H](C)CC)C(C)C)[C@@H](C)CC)C(=O)N[C@@H](CCC(=O)O)C(=O)N[C@@H](CCC(=O)O)C(=O)N[C@@H](CO)C(=O)N[C@@H](CC(=O)O)C(=O)N[C@@H](CCCCN)C(=O)N[C@@H](CCCCN)C(=O)N[C@@H](CC(C)C)C(=O)N[C@@H](CCC(=O)O)C(=O)N[C@@H](C)C(=O)N[C@@H](C)C(=O)N[C@@H](C)C(=O)N[C@@H](CCCCN)C(=O)N[C@@H](CCCCNC(=O)CCC(=O)O[C@H]1CC[C@@]2(C)C(=CC[C@H]3[C@@H]4CC[C@H]([C@H](C)CCCC(C)C)[C@@]4(C)CC[C@@H]32)C1)C(N)=O [Compound 13] (Ac-WDEFDKKIEEVNKKIEESLKKIEESDKKLEAAAKK(Succinyl(4-O-cholesteryl))-NH2) | 0.0356 | 30.7 |
